Experimental data published in ChEMBL document CHEMBL3886260, “Amide or urea containing benzothiazole inhibitors of endothelial lipase” (2015).

Each compound was assayed against T1, Endothelial lipase (Homo sapiens, UniProt Q9Y5X9) (assay: Biological Assay: Endothelial lipase activity was measured using a fluorescent substrate, A10070, (Invitrogen, CA) doped into an artificial vesicle containing DMPG (Avanti Polar Lipids) as the excipient. Vesicles were prepared by combining 285 uL, of 1 mM DMPG in a 1:1 mixture of MeOH and CHCl3 with 15 uL, of 1 mM A10070 in a 1:1 mixture of MeOH and CHCl3. The mixture was dried under nitrogen and resuspended in 150 uL, of 50 mM HEPES pH 8.0 buffer containing 100 mM NaCl and 0.2 mM EDTA. The sample was allowed to sit at rt for 15 min and then was sonicated 3x4 mins on ice with a Branson Sonicator using duty cycle 1. This preparation provides vesicles with a mole fraction of 0.05 for the FRET substrate.The enzymatic assay was measured using white, opaque 96-well half area plates. Each well contained 60 uL, of assay buffer (50 mM HEPES pH 8.0, 50 mM NaCl and 1 mM CaCl2) and 2 ul of a DMSO solution containing compound of interest. Conditioned media obtained from HT-1080 cells.).
T1 sequence (Q9Y5X9 whole entry): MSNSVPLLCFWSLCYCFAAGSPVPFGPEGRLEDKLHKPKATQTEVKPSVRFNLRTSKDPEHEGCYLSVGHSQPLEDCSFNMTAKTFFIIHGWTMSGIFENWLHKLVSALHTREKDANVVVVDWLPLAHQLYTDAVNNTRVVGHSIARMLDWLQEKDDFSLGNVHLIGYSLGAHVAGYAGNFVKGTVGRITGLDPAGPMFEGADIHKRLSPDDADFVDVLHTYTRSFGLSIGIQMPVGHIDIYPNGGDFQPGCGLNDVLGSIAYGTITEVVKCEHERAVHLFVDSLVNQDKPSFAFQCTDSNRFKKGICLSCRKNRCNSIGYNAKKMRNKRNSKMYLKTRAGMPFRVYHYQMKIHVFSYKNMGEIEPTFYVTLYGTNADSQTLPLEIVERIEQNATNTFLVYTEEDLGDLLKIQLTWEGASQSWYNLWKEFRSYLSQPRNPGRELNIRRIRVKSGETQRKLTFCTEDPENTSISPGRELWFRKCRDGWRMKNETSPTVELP
Format: cell-based

IC50 | Structure (SMILES)
< 10 nM | CC(C)(C)OC(=O)NC(c1nnc(CNS(N)(=O)=O)o1)c1nc2ccc(-c3ccccc3)cc2s1 (stereo not drawn)
< 10 nM | CC(=O)NC(c1nnc(C2CN(C(=O)OC(C)(C)C)C2)o1)c1nc2ccc(-c3ccccc3)cc2s1 (stereo not drawn)
< 10 nM | O=C(NC(c1nnc(CS(=O)(=O)O)o1)c1nc2ccc(-c3ccccc3)cc2s1)c1ccc(C(F)(F)F)cc1 (stereo not drawn)
